Assay: Storage stability of the formulation of Table 1 (prior formulation without fatty acid)
Assay type: physicochemical
Details: in the formulation of Table 1
Procedure: Applicants have observed an increase in at least one mometasone degradation product over time when the above formulation is stored at room temperature. […] The formation of the degradation product generally can be minimized by storing the formulation at colder temperatures (e.g., 5° C.). There is, however, a need for a formulation that can remain stable at greater temperatures (e.g., room temperature). This invention provides such a formulation.

## C[C@@H]1CN(c2c(F)c(F)c3c(=O)c(C(=O)O)cn(C4CC4)c3c2F)C[C@H](C)N1 [orbifloxacin]
  Effect of the orbifloxacin in the formulation on formation of the mometasone degradation product: accelerates the formation of the degradation product

Source: US10045940B2, “Composition comprising an antibiotic and a corticosteroid” (Intervet Inc., priority 2008, dated 2018)
